Measured values as given in patent US20250296961A1, “ANTIMICROBIAL PEPTIDES FOR REMINERALIZATION OF TEETH AND PREVENTION OF DENTAL CARIES” (The University of Hong Kong, priority 2021, published 2025).
Read-outs that look alike come from different tables or passages of the source. No end group written: not given here.

Tests used:
[1] = system: S. mutans; design: species or system Sprague-Dawley rats; settings: rat, in vivo
Procedure: The rat caries model was conducted under the protocol approved by the Ethics Committee of Anhui Medical University, China (ref. no. LLSC20232002) in accordance with national and international guidelines to minimise animal suffering. Ten male specific pathogen-free Sprague-Dawley rats aged 6 weeks were selected. The rats were provided with appropriate antibiotics (ampicillin, chloramphenicol, and carbencillin 1.0 g/kg/day) in the drinking water for 3 days. […] The infection was confirmed by oral swabbing and culturing on mitis salivarius-bacitracin (MSB) agar plates. The infected animals were randomly assigned into two groups (N=10): 16 μM mL^−1 of 8DSS-C8-P-113 in 10 mM HEPES (pH=7, n=5) and 10 mM HEPES (n=5, control group). Animals in each group were treated with 150 μL of the respective treatment topically using dental bonding brush for 2 min once daily for 4 weeks. […] The severity of caries was evaluated by the Keyes' scoring system which categorizes caries as enamel only (E), dentin exposed ¼ to ¾ (Ds), or more than ¾ dentin affected (Dm). The rats' weights were recorded to monitor for signs of toxicity. Additionally, various tissues from gingiva, palate, heart, liver, spleen, lung, and kidney were collected, stained with hematoxylin and eosin (H&E), and histopathologically analysed.

[2] = Stability of 8DSS-C8-P-113 hydrogel on tooth surface in flow water (BCA); type: physicochemical; settings: 16 μM mL^−1, flow water 30 mL h-1, 2 h
Procedure: 20 μL of 16 μM mL^−1 solution of 8DSS-C8-P-113 was applied to the tooth surface (N=5), and self-formed a layer of hydrogel sticking to the bottom of a hand-made instrument (FIG. 2J). To simulate the average human salivary flow rate, a stable flow of deionized water at a rate of 30 mL h-1 was provided using a Syringe Pump (LSP02-1B Double Channel inject/extract, China). The drained liquid, approximately 15 mL, was collected every 30 min. A sample of 100 μL of 16 μM mL^−1 solution of 8DSS-C8-P-113 was added to 15 mL of deionized water to serve as the 0 min sample. After 2 h, the drained liquids collected at 30 min, 60 min, 90 min, and 120 min were tested for their concentrations using Pierce BCA Protein Assay Kit (Rockford, IL).

[3] = for Peptide concentration incubated in human saliva: 37° C.
Procedure: (§1) The collected saliva samples were centrifuged at 12,000 rpm for 20 min^21]. The supernatant was filtered to remove any debris. […] At 0, 0.5, 1, 2, 4, and 6 h, 40 uL solutions were taken from each sample and were analysed by High Performance Liquid Chromatography (HPLC-UV, 1525 Binary HPLC Pump, 2489 UV/Visible Detector, Waters, USA).

[4] = system: MC3T3-E1 cells
Procedure: Cells exposed to α-MEM without peptide was the control group. Cells viability after peptide exposure was evaluated by cell survival rate using Cell Counting Kit-8 assay (CCK-8 assay, Sigma-Aldrich, St. Louis, USA).

[5] = in vitro; settings: human, human saliva (centrifuged, filtered supernatant)
Procedure: as §1

DSSDSSDSSDSSDSSDSSDSSDSSTFFRLFNRAKRHHGYKRKFH [8DSS-C8-P-113]
Histopathology analysis (H&E) [1]: No signs of inflammatory reaction, proliferative changes, or necrosis | Hydrogel remaining on the tooth surface (of initial status) [2]: over 80% | Hydrogel remaining on the tooth surface (of initial status) ([2]; listed as 8DSS-C8-P-113 hydrogel): approximately 82.15% | Peptide concentration incubated in human saliva ([3]; 0 h): 1 mg/mL | Peptide concentration incubated in human saliva ([3]; 0.5 h): 0.9942 mg/mL | Peptide concentration incubated in human saliva ([3]; 1 h): 0.987 mg/mL | Peptide concentration incubated in human saliva ([3]; 2 h): 0.9885 mg/mL | Peptide concentration incubated in human saliva ([3]; 4 h): 0.8991 mg/mL | Peptide concentration incubated in human saliva ([3]; 6 h): 0.894 mg/mL | Stability ([3]; summary grade): +++ | Cytocompatibility [4]: ++ | remaining at 6 h, 1 mg mL^−1 [5]: 89.4%
